The record followed here is US20240240224A1, “FLUORESCENT D-TYPE AMINO ACID METABOLISM MARKER-BASED METHOD FOR DETECTING ANTIBACTERIAL DRUG SENSITIVITY TEST” (priority 2020, published 2024).

In brackets after ≈: the same amount, converted by molar mass.

In one experiment the test system is E.coli 1146. Kind of experiment: Vitek 2 drug sensitivity test. For Sensibility: key: S: Drug sensitive; R: Drug resistance. Format: cell-based, Escherichia coli.
The subject of a further experiment is Ec ATCC 25922. Nature of the experiment: BMD susceptibility test. Particulars: unit assumed. Format: cell-based, Escherichia coli.
The subject of experiment [1] is Pseudomonas aeruginosa PAE853. Nature of the experiment: VITEK drug sensitivity test. Type of experiment: cell-based. The settings on record: unit assumed.

With `C[C@H]1COc2c(N3CCN(C)CC3)c(F)cc3c(=O)c(C(=O)O)cn1c23` [Levofloxacin, levofloxacin], the Sensibility result in the experiment with E.coli 1146 is recorded as “R”. For the same compound, the MIC in the experiment on E.coli 1146 (Escherichia coli) was ≥ 8 µg/mL. Besides, in the experiment with Ec ATCC 25922, the BMD (MIC) is ≤ 0.25 µg/mL. The MIC, VITEK in experiment [1] was determined as 0.5 µg/mL (≈ 1.38 µM).

One may read the MIC as the lowest concentration that inhibits growth of the organism. A lower MIC goes with a more susceptible organism.
